{"source": "patent US20250302816A1", "about": "“DISRUPTION OF EPITHELIAL BARRIERS FOR MOLECULAR DELIVERY ENHANCEMENT OR EXTRACTION OF EXTRACELLULAR FLUIDS” (The University of Nottingham, priority 2022, published 2025)", "key": {"ex-vivo rat eyes": {"system": "ex-vivo rat eyes", "method": "In order to investigate the efficacy of 3OC12-HSL as drug delivery enhancer in intact tissue, bevacizumab (250 μg/mL: […]) and aflibercept (40 mg/mL: 348 μM) were applied with and without 3OC12-HSL to ex-vivo rat eyes, and the distribution of drugs was visualised within sagittal ocular cryosections by confocal microscopy. A further set of experiments tested efficacy of 3OC12-HSL via ex vivo porcine skin.\nSix hooded rats with pigmented eyes, weighing 280-300 g and aged 7-8 weeks were provided by Bio-Support Unit at the Queen's Medical Centre, Nottingham. Experiments were designed to be performed ex-vivo, immediately post-sacrifice, during experiments supporting other studies. Tested therapies (bevacizumab (250 μg/mL), aflibercept (250 μg/mL) with/without 3OC12-HSL (200 μM) were immediately applied post-sacrifice in (50 μL) to the corneal surface of each animal for a period of 1 hour, before being washed off using ice-cold PBS. The eyeballs were enucleated, immersed in OCT, and flash-frozen in isopentane cooled by liquid N2 before being stored at −80° C. for further processing.\nOCT-embedded eyes were cut into 15 μm tissue sections using a cryostat (Leica 3050) and mounted on gelatin-coated slides, at cutting temperatures between −15 and −23° C. […]"}, "Calu-3": {"system": "Calu-3", "test": "Further in vitro Transwell studies: enhancing translocation of 4 kDa FITC-dextran", "assay_type": "cell-based, human", "method": "Exemplary molecules (a)-(1) investigated in coarse dose-response by FD4 delivery in Transwell culture (Calu-3). Each molecule was screened at 5 nM, 1 μM, 200 μM levels.\nEach compound was screened at 200 μM level.\nEach molecule was screened at 5 nM, 1 μM, 200 μM levels."}, "MMP": {"system": "MMP", "test": "Fluorogenic MMP activity assay", "assay_type": "cell-based, human", "method": "FIG. 5: High-throughput MMP assay (MMP Activity Assay Kit (Fluorometric-Red), Abcam #ab112147) showing the normalised accumulation slope of FRET-based signal (Ex540: Em590 nm) read at 5 minute intervals for one hour in adherent Calu-3 cells cultured in glass-bottomed 96-well plates using a SpectraMax i3x/Biomek FXPP high-throughput platform. Each experiment was conducted in triplicate (error bars). Signal accumulation over time in each well was linearly fitted and the gradient of each fit was scaled against the gradient of the relevant positive control wells, to which active MMP was added directly (mixed isoforms, […]), to obtain the normalised accumulation slope.\nTo investigate the involvement of MMP in the disruption of tight junctions observed in the presence of 200 μM 3OC12-HSL and C7 PQS, a fluorogenic MMP activity assay was performed, using the Amplite™ Universal Fluorimetric MMP Activity Assay Kit. This kit is designed to check the general activity of a MMP enzyme.\nFollowing treatment with 3OC12-HSL and C7 PQS respectively, the conditioned media were collected every hour from apical chamber and MMP activity was determined by using Amplite™ Universal Fluorimetric MMP Activity Assay Kit Green Fluorescence according to the manufacturer's instructions.\nA fluorogenic MMP activity assay was carried out in the same manner on further agents."}, "Calu-3 cells": {"system": "Calu-3 cells", "test": "MTS assay of metabolic activity / cell viability", "assay_type": "cell-based, human", "conditions": "5 nM to 200 μM, 6 hours", "procedure": "To assess 3OC12-HSL and C7 PQS molecules cytotoxicity on cell viability of Calu-3 cell layers and to monitor short-term cytotoxicity during experiments, Calu-3 cells were treated with 3OC12-HSL and C7 PQS, at concentrations 5 nM, 1 μM, 50 μM, 100 μM and 200 μM, for 6 hours. At the end of the treatment, cell viability (through measuring metabolic activity) of cultures was determined by chromogenic MTS assay.\nThe viability of Calu-3 cells was determined by a chromogenic MTS method based on the measuring of mitochondrial respiration, assessed by the reduction of 3-(4,5-dimethylthiazol-2-yl)-5-(3-carboxymethoxyphenyl)-2-(4-sulfophenyl)-2H-tetrazolium to formazan. Calu-3 cells were cultured in a 96-well plate (CellTiter 96® Aqueous, Promega) at a density of 10^4 cells per well and incubated at 37° C., 5% CO2 for 24 hours. After 24 hours, the medium was replaced with 100 μl of test compounds dissolved in HBSS and then cells were incubated for 6 hours. HBSS and Triton X-100 (0.1% v/v in HBSS) were used as the negative and positive controls respectively. Bathing solutions were then aspirated and cells washed with PBS. Then culture medium (100 μl at 37° C.) plus MTS reagent (20 μl) were added into each well and cells were incubated for 2 hours. Absorbance at 492 was measured using a Dynex absorbance microplate reader (Dynex Technologies, USA) and converted into a percentage metabolic rate."}, "Calu-3 cell layers": {"system": "Calu-3 cell layers", "test": "FD4 permeability and TEER of polarised Calu-3 cell layers", "assay_type": "cell-based, human"}, "ZO-1": {"system": "ZO-1", "test": "ZO-1 immunostaining and confocal microscopy of Calu-3 cell layers", "assay_type": "cell-based, human", "conditions": "200 μM, one hour, vs vehicle 0.15% DMSO", "method": "To visualise the effect of 3OC12-HSL and C7 PQS on tight junction integrity in Calu-3 cell layers, ZO-1, immunostaining and confocal microscopy was performed on cell layers treated by 200 μM 3OC12-HSL and C7 PQS and control (0.15% DMSO in HBSS) for one hour. Confluent cell monolayers were washed with PBS and fixed in 4% paraformaldehyde in PBS for approximately 10 min at room temperature. Cells were then washed 3 times with PBS and permeabilised by incubating with Triton X-100 (0.1% v/v in PBS) for 10 min. Cells were then washed with PBS, followed by the application of 1% BSA/PBS for approximately 1 hour. Thereafter, BSA/PBS solution was aspirated and replaced with mouse, anti-human ZO-1 (primary) antibody, diluted in 1% BSA/PBS to a final concentration of 100 μg/ml. Cell samples were incubated with the primary antibody for 2 hours. The primary antibody solution was then removed and cells washed with PBS (5 times). FITC-labelled goat, anti-mouse (secondary) antibody, diluted according to manufacturer's instructions in 1% BSA/PBS was then applied to the cells for 1 hour. The secondary antibody solution was then aspirated and cells washed with PBS three times. […]"}, "ARPE-19 cell layers": {"system": "ARPE-19 cell layers", "test": "Transwell drug transport across ARPE-19 cell layers with or without 3OC12-HSL", "assay_type": "cell-based, human", "conditions": "doxorubicin 250 μg/ml apical, after 5 hours", "method": "FIG. 1: Macromolecular therapeutics transported across ARPE-19 cell layers in the absence and presence of 3OC12-HSL transported into the basolateral chamber over a period of five hours. Permeability experiments were initiated by applying 0.5 ml of the test solutions (250 μg/ml Aflibercept/Bevacizumab/or Doxorubicin diluted in HBSS/HEPES) to the apical side of the cells (donor compartment of the Transwell) with or without 3OC12-HSL (200 μM). Drug permeability was determined by sampling the basolateral solution at regular time intervals. Data points are expressed as means±SEM, derived from three replicates in triplicate. p values of <0.05 were considered statistically significant. *, ** and *** denote p<0.05, p<0.01 and p<0.001, respectively.\nCalu-3 cells obtained from American Type Culture Collection, USA were cultured using Dulbecco's Modified Eagle Medium (DMEM) supplemented with penicillin (100 U/mL), streptomycin (0.1 mg/mL), amphotericin (0.25 μg/mL), non-essential amino acids (NEM, 1%) and Fetal Bovine Serum (FBS, 10% v/v, Sigma-Aldrich, UK). The human-derived RPE cell line ARPE-19 was obtained from American Type Culture Collection. Cells were grown in Dulbecco's Modified Eagle Medium: F12 (1:1; Gibco, Invitrogen, Carlsbad, CA), including 10% inactivated fetal bovine serum, 100 units/mL penicillin, 100 μg/mL streptomycin, and 2 mM L-glutamine (Sigma-Aldrich). Caco-2 cells were grown in complete culture medium (DMEM supplemented with 17% FBS and 1% antibiotic-antimycotic solution). All cells were kept in a water-jacketed incubator (model 3546, Forma Scientific, Inc., Marietta, OH, USA) maintained at 37° C. and an atmosphere of humidified air with 5% CO2. Medium was replaced every other day until cells reached the 80-90% confluence desired for re-plating or culturing mature, polarised barrier models.\nWhen confluent, cells were seeded on Transwell® filters (12 mm diameter, 0.4 μm pore size; Corning Life Sciences, Holland) at 10^5 cells/cm^2. […]\nThree polarised epithelial in-vitro tissue models, including lung epithelium (Calu-3), retinal pigment epithelium (ARPE-19) and intestinal epithelial (Caco-2) were used to study the efficiency of 200 μM 3OC12-HSL as a paracellular permeability enhancer for three different drugs: bevacizumab, aflibercept and doxorubicin (applied concentrations 250 μg/mL). The amount of drugs transported was determined via the conversion of fluorescence intensity to amount (μg or ng), using calibration curves constructed via serial standard dilutions. […]\nPermeability experiments were initiated by applying 0.5 mL of the test solutions to the apical side of the cells (donor compartment of the Transwell®). […] Drug permeability was determined by sampling the basolateral solution at regular time intervals. […]"}, "[1]": {"system": "laser-induced mouse model of CNV", "test": "Laser-induced mouse model of choroidal neovascularisation (CNV)", "assay_type": "in vivo, C57BL/6J mice", "conditions": "day 7, topical drops to both eyes twice daily, bevacizumab 250 μg/mL", "method": "FIG. 7: Anti-angiogenic efficacy of Bevacizumab with and without 3OC12-HSL (agent) in a laser-induced mouse model of CNV.in a mouse model of choroidal neovascularisation. C57BL/6J mice (n=6 per group) were subjected to laser photocoagulation (Merilas, 532α, 450 mW, 130 ms, 75 μm, 4 lesions per eye) on day 0. Post lasering animals received twice daily topical drops to both eyes10 μL of bevacizumab (250 μg/mL) with/without 3OC12-HSL and control vehicle only) for a total of 14 days. FFA was performed on days 7 and 14 and lesion area measured using Fiji software, n=lesions (mice). All data and graphs were calculated with Fiji and GraphPad Prism v8 and statistical analysis using an t-test, with Welch's correction, * p=<0.05, ** p=<0.01. Data bars represent mean±SEM. Scale bar 200 μm.\nSix to eight week-old female C57BL/6J mice (16-20 g, Charles River, UK) were anaesthetized with an intraperitoneal (i.p.) injection of 50 mg/kg ketamine hydrochloride (Ketaset®, 100 mg/mL) and 0.5 mg/kg medetomidine hydrochloride (Sedastart®, 1 mg/mL). The pupils were dilated with a drop of 5% phenylephrine hydrochloride and 0.8% tropicamide to each eye. […] Fundus angiograms were imported into Fiji software and lesions were traced by a masked observer and lesion area was quantified over treatment time and compared between treatment groups. […]"}}}
{"compound": "Aflibercept: recombinant fusion protein of VEGF-binding portions of human VEGF receptors 1 and 2 and Fc of human IgG1", "values": [{"measurement": "fluorescence in eye sections (CLSM)", "setting": "ex-vivo rat eyes", "value": "No fluorescence was detected"}]}
{"compound": "CCCCCCCc1[nH]c2ccccc2c(=O)c1O", "note": "[C7 PQS, 2-n-heptyl-3-hydroxy-4 (1H)-quinolone]", "values": [{"measurement": "Effective in enhancing translocation", "setting": "Calu-3", "value": "Yes"}, {"measurement": "MMP activation in apical samples taken at one-hour intervals", "setting": "MMP; 200 μM, p<0.01, no fluorescence in control samples", "value": "significant MMP activation"}, {"measurement": "period over which MMP activation increased before starting to reduce", "setting": "MMP; samples taken hourly from apical chamber", "value": 4, "unit": "h"}, {"measurement": "cytotoxic effect on cell viability within epithelial layers", "setting": "Calu-3 cells", "value": "do not have an adverse cytotoxic effect"}, {"measurement": "paracellular passage / flux of FD4 from apical to basolateral chamber", "setting": "Calu-3 cell layers; 200 μM (3OC12-HSL: 200 μM or 1 μM)", "value": "increased the flux of FD4"}, {"measurement": "TEER after 7 hours", "setting": "Calu-3 cell layers; 200 μM, recovery, SEM+/−20", "value": "510 Ωcm^−2"}, {"measurement": "time after which TEER started increasing / cell layer integrity began to recover", "setting": "Calu-3 cell layers; during exposure", "value": 5, "unit": "h"}, {"measurement": "ZO-1 distribution at tight junctions", "setting": "ZO-1", "value": "considerable dislocation of ZO-1 proteins"}]}
{"compound": "COc1cccc2c1C(=O)c1c(O)c3c(c(O)c1C2=O)C[C@@](O)(C(=O)CO)C[C@@H]3O[C@H]1C[C@H](N)[C@H](O)[C@H](C)O1", "note": "[Doxorubicin, reference compound]", "values": [{"measurement": "amount of drug transported into the basolateral chamber", "setting": "ARPE-19 cell layers; with 3OC12-HSL (200 μM)", "value": 62.33, "unit": "µg"}, {"measurement": "amount of drug transported into the basolateral chamber", "setting": "ARPE-19 cell layers; without 3OC12-HSL", "value": 9.85, "unit": "µg"}]}
{"compound": "Bevacizumab: recombinant humanized monoclonal IgG1 antibody which binds to human VEGF (MW 149 kDa)", "values": [{"measurement": "fluorescence in eye sections (CLSM)", "setting": "ex-vivo rat eyes", "value": "No fluorescence was detected"}, {"measurement": "average lesion area", "setting": "[1]", "value": "2.86±0.47×10^4"}, {"measurement": "penetration through skin", "setting": "ex vivo porcine skin", "value": 5, "unit": "mm"}]}
